Values quoted from earlier work as cited in patent publication US9421238B2 (priority 2013, dated 2016).
Where two headings read alike, the source gives them in different places.

Details: rat, CO-60 in liver

## N[C@@H](CCC(=O)N[C@@H](CS)C(=O)NCC(=O)O)C(=O)O [Plain glutathione, glutathione]
Intravenous administration
  removal of toxin: 64%
Oral administration
  removal of toxin: 0%
  toxin remained/remaining: 100%
